Assay: molar heat capacity at constant pressure
Conditions: 101.33 kPa, Crystal, Vacuum adiabatic calorimetry

CC(C)(C)c1ccc(-c2ccccc2)cc1 [4-(1,1-dimethylethyl)-1,1'-biphenyl]
Conditions	molar heat capacity at constant pressure [J/K/mol]
8.3 K	2.522
8.57 K	2.757
9.11 K	3.228
9.63 K	3.765
9.89 K	4.01
11.01 K	5.257
11.39 K	5.703
11.77 K	6.312
12.15 K	6.72
12.53 K	7.182
12.92 K	7.664
13.28 K	8.377
13.65 K	8.833
14.02 K	9.436
14.39 K	9.935
14.75 K	10.39
15.11 K	10.96
15.48 K	11.37
15.83 K	12.26
16.19 K	12.78
16.55 K	13.21
16.91 K	13.77
17.27 K	14.49
17.62 K	15.23
17.98 K	15.86
18.33 K	16.18
18.68 K	16.71
19.03 K	16.98
19.38 K	17.88
19.73 K	18.48
20.08 K	19.01
20.76 K	20.23
21.53 K	21.57
22.31 K	22.77
23.08 K	23.92
23.85 K	25.18
24.62 K	26.43
25.38 K	27.38
26.14 K	28.32
26.9 K	30.11
27.66 K	31.35
28.42 K	32.53
29.17 K	33.54
29.93 K	34.42
30.68 K	35.96
31.43 K	37.32
32.19 K	38.43
32.96 K	38.73
33.71 K	40.37
34.46 K	41.38
35.21 K	42.08
35.96 K	43.44
36.71 K	44.59
37.46 K	45.86
38.21 K	46.57
38.96 K	47.65
39.71 K	48.45
40.46 K	49.16
41.21 K	50.62
41.95 K	51.64
42.7 K	52.5
43.45 K	53.06
44.2 K	53.77
44.95 K	55.03
45.69 K	55.67
46.44 K	57.1
47.19 K	57.29
47.93 K	58.61
48.68 K	59.76
49.43 K	60.29
50.18 K	60.84
50.92 K	61.9
51.67 K	62.56
52.42 K	63.33
53.16 K	64.3
53.91 K	65.39
54.65 K	65.94
55.4 K	66.72
56.14 K	67.31
56.89 K	68.21
57.64 K	68.36
58.38 K	69.38
59.12 K	69.98
59.86 K	70.84
60.61 K	71.8
61.35 K	72.22
62.09 K	73.3
62.83 K	73.97
63.57 K	75.16
64.31 K	75.92
65.06 K	76.6
65.8 K	77.49
66.54 K	77.97
67.27 K	79.07
68.02 K	79.18
